Assay results as given in PubChem BioAssay AID1919000 (Molecular Pharmacology Branch, DTP, NCI, 2023).
“And” between values parts separate entries of the source, which are not always exact repeats. Identical values can stand only once.

System: 653999-131-R-J2-PDC complex spheroids, growth % test/control
Assay: Anticancer human tumor 653999-131-R-J2-PDC patient-derived lung adenocarcinoma cell line growth inhibition [AhR]
Conditions: for viability, T/C: stronger effect = lower value; active means viability on the fitted dose curve at most 10% of control; inactive means the rest
Text: Multicellular complex tumor spheroid response to aryl hydrocarbon receptor antagonists in combination with a variety of drugs and investigational agents in selected tumor cell lines
The current study was undertaken to assess response to aryl hydrocarbon receptor antagonists in combination with standard-of-care drugs and investigational agents in solid tumor complex spheroid models. Complex spheroids include a stromal component modeled by human endothelial cells (HUVEC) and fibroblasts modeled by human mesenchymal stem cells (MSCs). The concentration ranges selected for each drug and investigational agent were based upon clinically achievable concentrations if the clinical Cmax of the agent was known.
Compounds. The drugs and investigational agents: BAY 2416964 (NSC825713), GNF351 (NSC835774), CH-223191 (NSC835775), CPI-455 (NSC825282), aza-TdCyd (NSC777586), decitabine (NSC127716), belinostat (NSC758774), entinostat (NSC756642), pevonedistat (NSC761192), tazemetostat (NSC777109), talazoparib (NSC765396), olaparib (NSC753686), selinexor (NSC780203), nedisertib (M3814, NSC802822), bortezomib (NSC756655), venetoclax (NSC766270), doxorubicin (NSC123127), elimusertib (BAY189344, NSC800525), ceralasertib (AZD6738, NSC777638), TAK-243 (NSC785004), alisertib (NSC759677), etoposide (NSC141540), topotecan (NSC609699), eribulin (NSC707389), gemcitabine (NSC613327), carboplatin (NSC241240), cisplatin (NSC119875), and SN-38 (NSC673596) were obtained from the National Cancer Institute (NCI) Developmental Therapeutics Program Chemical Repository (32). The FDA-approved anticancer drug set is available from the Developmental Therapeutics Program at https://dtp.cancer.gov/organization/dscb/obtaining/available plates.htm. […] The stock solutions were prepared in dimethyl sulfoxide (DMSO, Sigma-Aldrich, St. Louis, MO, cat. D2650), except for the platinum compounds which were prepared in saline (Quality Biological, Gaithersburg, MD, cat. 114-055-101), at 800-fold the tested concentration and stored at -70 degrees C prior to their use. All drugs and investigational agents were tested over a range starting from a high concentration at or near the clinical Cmax and decreasing in half-log increments. If the clinical Cmax for an agent had not been determined, the highest concentration tested was 10 microM (Table 1).
Cell Culture. All cells were maintained in an incubator at 37 degrees C and 5% CO2 with 95% humidity. The PDC lines were cultured according to standard operating procedures established by the NCI PDMR (https://pdmr.cancer.gov). Briefly, all PDCs were thawed and cultured in Matrigel-coated flasks prepared with a working solution of 1X Ham's F-12 nutrient mix, without supplementation (Invitrogen, Waltham, MA, cat. 11765054), 100 U/mL penicillin-streptomycin (Invitrogen, cat. 15140122), and 2.5% Matrigel (Corning Inc., Corning, NY, cat. 354248) for the first three passages. All PDCs were cultured in complete DMEM/F-12 media containing advanced DMEM/F-12 (Invitrogen, cat. 12634028), 4.9% defined fetal bovine serum, heat inactivated (HyClone Laboratories Inc., Logan, UT, cat. SH30070.03HI), 389 ng/mL hydrocortisone (Sigma-Aldrich, cat. H4001), 9.7 ng/mL human EGF recombinant protein (Invitrogen, cat. PHG0313), 23.4 microg/mL adenine (Sigma-Aldrich, cat. A2786), 97.3 U/mL penicillin-streptomycin (Invitrogen, cat. 15140122), 1.9 mM L-glutamine (Invitrogen, cat. 25030081), and 9.7 microM Y-27632 dihydrochloride (Tocris Bioscience, Bristol, United Kingdom, cat. 1254). The PDCs were cultured in complete DMEM/F12 media without 10 microM Y-27632 dihydrochloride for at least two passages prior to the screen. The established cell lines NCI-H1341 and […] were cultured in DMEM/F-12, HEPES (Invitrogen, cat. 11330032), 5% defined fetal bovine serum (HyClone Laboratories Inc., cat. SH30070.03), ITS premix universal culture supplement [insulin (5 microg/mL), transferrin (5 microg/mL), and selenious acid (5 ng/mL)] […]

[1] = curve of first compound, second compound 0.1 µM
[2] = curve of first compound, second compound 0.316 µM
[3] = curve of first compound, second compound 1 µM
[4] = curve of first compound, second compound 3.16 µM
[5] = curve of first compound, second compound 10 µM
[6] = second compound 0.1 µM, first compound 0.0316 µM
[7] = second compound 0.1 µM, first compound 0.1 µM
[8] = second compound 0.1 µM, first compound 0.316 µM
[9] = second compound 0.1 µM, first compound 1 µM
[10] = second compound 0.1 µM, first compound 3.16 µM
[11] = second compound 0.1 µM, first compound 10 µM
[12] = second compound 0.316 µM, first compound 0.0316 µM
[13] = second compound 0.316 µM, first compound 0.1 µM
[14] = second compound 0.316 µM, first compound 0.316 µM
[15] = second compound 0.316 µM, first compound 1 µM
[16] = second compound 0.316 µM, first compound 3.16 µM
[17] = second compound 0.316 µM, first compound 10 µM
[18] = second compound 1 µM, first compound 0.0316 µM
[19] = second compound 1 µM, first compound 0.1 µM
[20] = second compound 1 µM, first compound 0.316 µM
[21] = second compound 1 µM, first compound 1 µM
[22] = second compound 1 µM, first compound 3.16 µM
[23] = second compound 1 µM, first compound 10 µM
[24] = second compound 3.16 µM, first compound 0.0316 µM
[25] = second compound 3.16 µM, first compound 0.1 µM
[26] = second compound 3.16 µM, first compound 0.316 µM
[27] = second compound 3.16 µM, first compound 1 µM
[28] = second compound 3.16 µM, first compound 3.16 µM
[29] = second compound 3.16 µM, first compound 10 µM
[30] = second compound 10 µM, first compound 0.0316 µM
[31] = second compound 10 µM, first compound 0.1 µM
[32] = second compound 10 µM, first compound 0.316 µM
[33] = second compound 10 µM, first compound 1 µM
[34] = second compound 10 µM, first compound 3.16 µM
[35] = second compound 10 µM, first compound 10 µM
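Further: spheroids exposed to agents for seven days.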

CC1COCCN1c1cc(C2(S(C)(=N)=O)CC2)nc(-c2ccnc3[nH]ccc23)n1 (configuration not stated) + CC(CO)NC(=O)c1cc(-c2ccc(Cl)cc2)nn(-c2cnn(C)c2)c1=O
7.88 µM: IC50 [4]
inactive: viability, T/C [6] 102% | viability, T/C [7] 97.6% | viability, T/C [8] 97.8% | viability, T/C [9] 87.3% | viability, T/C [10] 75.2% | viability, T/C [11] 47.1% | viability, T/C [12] 101% | viability, T/C [13] 95.6% | viability, T/C [14] 103% | viability, T/C [15] 83.3% | viability, T/C [16] 71.3% | viability, T/C [17] 52.6% | viability, T/C [18] 101% | viability, T/C [19] 95.4% | viability, T/C [20] 101% | viability, T/C [21] 91% | viability, T/C [22] 73.9% | viability, T/C [23] 51.5% | viability, T/C [24] 92.7% | viability, T/C [25] 107% | viability, T/C [26] 100% | viability, T/C [27] 88.8% | viability, T/C [28] 55.6% | viability, T/C [29] 48.5% | viability, T/C [30] 111% | viability, T/C [31] 98.5% | viability, T/C [32] 100% | viability, T/C [33] 78% | viability, T/C [34] 51.5% | viability, T/C [35] 41.8%
3.94 µM: IC50 [5]
> 10 µM: IC50 [2] | IC50 [3]
8.97 µM: IC50 [1]

Nc1ncn(C2CC(O)C(CO)S2)c(=O)n1 (configuration not stated) + Cc1cncc(-c2nc(NCCc3c[nH]c4ccccc34)c3ncn(C(C)C)c3n2)c1
inactive: viability, T/C (second compound 0.1 µM, first compound 0.000949 µM) 106% | viability, T/C (second compound 0.1 µM, first compound 0.003 µM) 95.4% | viability, T/C (second compound 0.1 µM, first compound 0.00949 µM) 93.7% | viability, T/C (second compound 0.1 µM, first compound 0.03 µM) 90.4% | viability, T/C (second compound 0.1 µM, first compound 0.0949 µM) 93.2% | viability, T/C (second compound 0.1 µM, first compound 0.3 µM) 82.5% | viability, T/C (second compound 0.316 µM, first compound 0.000949 µM) 102% | viability, T/C (second compound 0.316 µM, first compound 0.003 µM) 99.8% | viability, T/C (second compound 0.316 µM, first compound 0.00949 µM) 101% | viability, T/C (second compound 0.316 µM, first compound 0.03 µM) 94.3% | viability, T/C (second compound 0.316 µM, first compound 0.0949 µM) 88.7% | viability, T/C (second compound 0.316 µM, first compound 0.3 µM) 85.7% | viability, T/C (second compound 1 µM, first compound 0.000949 µM) 106% | viability, T/C (second compound 1 µM, first compound 0.003 µM) 111% | viability, T/C (second compound 1 µM, first compound 0.00949 µM) 121% | viability, T/C (second compound 1 µM, first compound 0.03 µM) 109% | viability, T/C (second compound 1 µM, first compound 0.0949 µM) 106% | viability, T/C (second compound 1 µM, first compound 0.3 µM) 103% | viability, T/C (second compound 3.16 µM, first compound 0.000949 µM) 84.1% | viability, T/C (second compound 3.16 µM, first compound 0.003 µM) 87.8% | viability, T/C (second compound 3.16 µM, first compound 0.00949 µM) 93.4% | viability, T/C (second compound 3.16 µM, first compound 0.03 µM) 84.7% | viability, T/C (second compound 3.16 µM, first compound 0.0949 µM) 66.5% | viability, T/C (second compound 3.16 µM, first compound 0.3 µM) 73% | viability, T/C (second compound 10 µM, first compound 0.000949 µM) 65% | viability, T/C (second compound 10 µM, first compound 0.003 µM) 50.9% | viability, T/C (second compound 10 µM, first compound 0.00949 µM) 58% | viability, T/C (second compound 10 µM, first compound 0.03 µM) 44% | viability, T/C (second compound 10 µM, first compound 0.0949 µM) 53% | viability, T/C (second compound 10 µM, first compound 0.3 µM) 52.7%
> 0.3 µM: IC50 [1] | IC50 [2] | IC50 [3] | IC50 [4] | IC50 [5]

COc1cc(Nc2ncc3c(n2)-c2ccc(Cl)cc2C(c2c(F)cccc2OC)=NC3)ccc1C(=O)O
inactive: viability, T/C (compound 0.0316 µM) 93.1% and 93.5% and 98% | viability, T/C (compound 0.1 µM) 73% and 85% and 75.2% | viability, T/C (compound 0.316 µM) 75.1% and 70.2% and 68.6% | viability, T/C (compound 1 µM) 71.5% and 66.9% and 67.2% | viability, T/C (compound 3.16 µM) 66.2% and 68.2% and 70.6% | viability, T/C (compound 10 µM) 60.7% and 64.3% and 65.4%
> 10 µM: IC50 (curve of compound)

COc1ccc([C@@H](O)c2cc(-c3ncnc4cc(N5CCOCC5)ccc34)c(F)cc2Cl)nn1 + CC(CO)NC(=O)c1cc(-c2ccc(Cl)cc2)nn(-c2cnn(C)c2)c1=O
inactive: viability, T/C [6] 91.5% | viability, T/C [7] 86.9% | viability, T/C [8] 85.4% | viability, T/C [9] 73.6% | viability, T/C [10] 63.9% | viability, T/C [11] 47.6% | viability, T/C [12] 89.9% | viability, T/C [13] 90.2% | viability, T/C [14] 87.8% | viability, T/C [15] 80% | viability, T/C [16] 66.8% | viability, T/C [17] 45.2% | viability, T/C [18] 90.4% | viability, T/C [19] 95.4% | viability, T/C [20] 95.2% | viability, T/C [21] 84.5% | viability, T/C [22] 65.4% | viability, T/C [23] 46.6% | viability, T/C [24] 96% | viability, T/C [25] 96.8% | viability, T/C [26] 100% | viability, T/C [27] 77.4% | viability, T/C [28] 60.3% | viability, T/C [29] 45.4% | viability, T/C [30] 90% | viability, T/C [31] 95.3% | viability, T/C [32] 90.8% | viability, T/C [33] 75.3% | viability, T/C [34] 59.5% | viability, T/C [35] 45.6%
6.94 µM: IC50 [5]
7.79 µM: IC50 [2]
7 µM: IC50 [4]
8.13 µM: IC50 [3]
8.45 µM: IC50 [1]
